Here are results for one compound from US20250213627A1, “RECOMBINANT MICROORGANISM-BASED METHODS AND COMPOSITIONS FOR TREATMENT OF DISEASE” (Baylor College of Medicine, priority 2021, published 2025).

As usually defined, the IC50 is the concentration that inhibits the measured activity by half. Read a low IC50 as greater potency in that assay.

The target in one experiment is Kv1.3 (Mus musculus, UniProt P16390). The experiment is described as follows: Block of Kv1.3 channel, reported potency. The format is cell-based. To be noted: FIGS. 5A-5B; n=4 cells per concentration.
Experiment [1] relates to Kv1.3 versus Kv1.1 and other ion channels. The experiment is described as follows: Selectivity for Kv1.3 over other channels by whole-cell patch-clamp. The settings on record: FIG. 5E. In kind it is cell-based. From the text:
FIGS. 5A-5E. […] FIG. 5A. Whole-cell Kv1.3 currents before (control) and after addition of 100 pM ShK-235. FIG. 5B. Dose-response effects of ShK-235 on Kv1.3 currents (n=4 cells per concentration). FIG. 5C. Dose-response of mKv1.3 block by synthetic ShK-235. N=3 cells per concentration. […] FIG. 5D. Representative traces of the block of mKv1.3 currents by 100 pM synthetic ShK-235. FIG. 5E. Selectivity of ShK-235 against Kv1.x channels determined by whole-cell patch-clamp.
(In general: Patch clamp records ionic current or voltage across a cell membrane.)

In experiment [2] the test system is collagen-induced arthritis (CIA) in Lewis rats. The experiment is described as follows: Collagen-induced arthritis (CIA) treatment trial. In kind it is in vivo, rat. As to the method:
Starting at onset of clinical signs, four groups of rats received ˜1×10^9 CFU of either LrGusA or LrS235, both after SppIP induction for 2.5 hr, by daily oral gavage, or P6N vehicle or synthetic ShK-235 by injection in the scruff of the neck every other day.
Induction, monitoring, randomization, and treatment of rat collagen-induced arthritis. CIA was induced as described previously (46, 50). Briefly, female Lewis rats received a subcutaneous injection of 200 μl of a 1:1 emulsion of 2 mg/ml porcine type II collagen (20031, Chondrex, Redmond, WA) with incomplete Freund's adjuvant at the base of the tail. After 7 days, rats were given a booster of 100 μl of collagen and adjuvant emulsion. Disease onset was defined as the development of at least one swollen or red paw joint. Clinical scores were determined daily by assigning 1 point for each swollen or red toe joint, 2 points for mildly swollen wrist or ankle joints, and 5 points for each severely swollen wrist or ankle, giving each rat a maximum possible score of 60. Upon disease onset, rats were treated every other day by the subcutaneous injection of P6N buffer vehicle or 0.1 mg/kg ShK-235, or the oral gavage of 1×10^9 cfus LrGusA or 1×10^9 cfus LrS235 daily. CIA is more severe in rats with early disease onset. To avoid biasing results based on disease severity on the day each rat developed signs of disease and accounting for differences in the time between immunization and when a rat developed signs of illness, every rat that developed signs of disease on a given day was placed in a different treatment group to fill all groups in parallel.
Histology and micro-CT. Healthy rats and rats from the CIA trials were euthanized after 21 days of treatment, and their hind paws were collected and fixed in 10% buffered formalin. One paw from each rat was imaged by Micro-CT using a Bruker SkyScan 1272 Scanner set at 13 μm resolution with no filtering, no averaging, and a rotation step of 0.3. Raw images were analyzed with CTvox (Bruker, MA, US). The other hind paw was decalcified, embedded in paraffin, and sectioned. Slides were stained with either hematoxylin and eosin or Safranin O/Fast green and imaged at 4× magnification on a Nikon Ci-L bright-field microscope (Nikon Inc. NY, US). Scoring of the slides was completed by an investigator blinded to treatment groups using a comprehensive histological scoring system as described elsewhere (46, 51), in which cartilage degradation, cartilage erosion, angiogenesis, pannus formation, synovial hyperplasia, and synovial inflammation were evaluated by the following criteria: 0=absent, 1=mild, 2=moderate, 3=severe. The data were presented as mean±standard deviation.

Chain of Kv1.3 (P16390 whole entry): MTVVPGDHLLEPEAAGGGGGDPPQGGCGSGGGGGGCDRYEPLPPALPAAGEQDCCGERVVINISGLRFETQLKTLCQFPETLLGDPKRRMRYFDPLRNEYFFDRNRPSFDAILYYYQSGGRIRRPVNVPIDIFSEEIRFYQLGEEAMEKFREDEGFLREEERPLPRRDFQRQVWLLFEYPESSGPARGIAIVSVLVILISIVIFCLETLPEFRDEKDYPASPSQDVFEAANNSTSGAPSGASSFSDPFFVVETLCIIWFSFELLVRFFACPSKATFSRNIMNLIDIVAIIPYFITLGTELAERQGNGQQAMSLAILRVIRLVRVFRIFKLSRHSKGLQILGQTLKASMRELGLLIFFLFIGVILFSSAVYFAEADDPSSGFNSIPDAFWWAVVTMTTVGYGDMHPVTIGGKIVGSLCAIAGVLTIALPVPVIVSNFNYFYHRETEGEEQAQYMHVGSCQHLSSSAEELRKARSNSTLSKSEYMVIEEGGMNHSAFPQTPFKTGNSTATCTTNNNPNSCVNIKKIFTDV

Turning to `CC[C@H](C)[C@@H]1NC(=O)[C@H](CO)NC(=O)[C@H](Cc2c[nH]cn2)NC(=O)[C@H](CCCCN)NC(=O)[C@@H]2CSSC[C@@H]3NC(=O)[C@H]([C@@H](C)O)NC(=O)[C@H](CCCCN)NC(=O)[C@H](CCCNC(=N)N)NC(=O)[C@H](CSSC[C@H](NC(=O)[C@H](CCCNC(=N)N)NC(=O)[C@H](CO)NC(=O)[C@H](CCCCN)NC(=O)[C@@H]4CCCN4C(=O)[C@H]([C@@H](C)CC)NC(=O)[C@H]([C@@H](C)O)NC(=O)[C@H](CC(=O)O)NC(=O)[C@H]([C@@H](C)CC)NC(=O)[C@@H](NC(=O)[C@H](CO)NC(=O)[C@@H](N)CCCNC(=N)N)CSSC[C@@H](C(=O)N[C@@H](C)C(=O)O)NC(=O)[C@H]([C@@H](C)O)NC(=O)CNC3=O)C(=O)N[C@@H]([C@@H](C)O)C(=O)N[C@@H](C)C(=O)N[C@@H](Cc3ccccc3)C(=O)N[C@@H](CCCCN)C(=O)N2)NC(=O)[C@H](Cc2ccccc2)NC(=O)[C@H](CO)NC(=O)[C@H](CC(C)C)NC(=O)[C@H](CCCNC(=N)N)NC(=O)[C@H](Cc2ccc(O)cc2)NC(=O)[C@H](CCCCN)NC1=O` [ShK-235], 0.062 nM corresponded to half-maximal inhibition against Kv1.3 (IC50). The “Selectivity for Kv1.3 over other channels” value in experiment [1] was ≥ 2,200 fold. Moreover, the “Mean clinical score of arthritis” value in experiment [2] (21 days from onset, bacteria ~1×10^9 CFU daily oral gavage, synthetic ShK-235 0.1 mg/kg s.c. every other day, max score 60) worked out at 11±3. Also, in experiment [2] (end of trial), the “Joint histology parameters (cartilage degradation and erosion, angiogenesis, pannus, synovial hyperplasia and inflammation)” value is “significantly reduced all parameters”; the “Micro-CT imaging of hind limbs (bone erosion)” value is reported as “better-preserved bones”. In addition, in experiment [2] (same regimens as mean score), the “Reduction of mean clinical score compared to vehicle control” value is recorded as about 60%.
